Laboratory results from US20250312411A1, “Treatment of Multi-Drug-Resistant Cancers Using Nanoparticulate Drug Delivery Vehicles” (priority 2024, published 2025).

Legend:
Format in all cases: cell-based
[1] = test system: tunneling nanotubes (TNTs) in 50:50 DS/MDR MDA-MB-231 cells; experiment: Number of TNTs/cm^2 counted in 50:50 DS/MDR co-culture after treatment; conditions: 50:50 DS/MDR ratio of MDA-MB-231 cells, n=25, FIG. 4C
MDR TNBC cells = experiment: Wound healing assay (cell migration), MDR cells; conditions: AS-LNP at 10 PM and 30 PM, n=10, FIG. 6B
Description: (§1) SNARE proteins mediate EV release but also mediate the fusion of TNTs with recipient cells.

DS TNBC cells = experiment: Wound healing assay (cell migration), drug sensitive cells; conditions: AS-LNP at 10 PM and 30 PM, n=10, FIG. 6A
Description: as §1

| SMILES | number of TNTs/cm^2 [1] | cell migration in wound healing assay (MDR TNBC cells) | cell migration in wound healing assay (DS TNBC cells) |
| --- | --- | --- | --- |
| CN(C)C(=N)N=C(N)N [metformin] | more effective in reducing the number of TNTs |  |  |
| O=C(/C=C/c1ccc(/C=C/C(=O)Nc2ccc(C3=NCCN3)cc2)cc1)Nc1ccc(C2=NCCN2)cc1 [GW4869] |  | did not decrease cell migration | did not decrease cell migration |
| C/C1=C\[C@@H](C)C/C=C/[C@H]2[C@@H]3O[C@]3(C)[C@@H](C)[C@H]3[C@H](Cc4c[nH]c5ccccc45)NC(=O)[C@]32C(=O)/C=C/C(=O)[C@@H]1O [CA, chaetoglobosin A] | significantly reduced the number of TNTs |  |  |
